Experimental data from patent publication US20220333078A1, “Method for ex vivo expansion CD34+HSPCs into NK cells using an aryl hydrocarbon receptor antagonist” (Stichting Radboud universitair medisch centrum, priority 2015, published 2022).

Key:
CD56+NK cells = assay: FCM phenotype of CD56+NK cells after 35 days of culture; assay type: cell-based, human; conditions: generated in the presence vs absence of SR1
Procedure: (§1) Cell numbers and expression of cell-surface markers were determined by FCM. Anti-human CD45-ECD (J.33, Beckman Coulter, Woerden, The Netherlands) and anti-CD56-PC7 (HCD56, Biolegend, San Diego, Calif., USA) antibodies were used to follow cell number and NK cell differentiation during culture using the Coulter FC500 flow cytometer (Beckman Coulter). The population of viable CD45+ cells was determined by exclusion of 7-AAD (Sigma, St Louis, Mo., USA) positive cells. For phenotypical analysis, cells were incubated with antibodies in FCM buffer (PBS/0.5% bovine serum albumin (BSA; Sigma) for 30 minutes at 4° C. After washing, cells were resuspended in FCM buffer and analyzed. The following conjugated monoclonal antibodies were used for NK cell phenotyping: anti-NKG2A-PE (Z199; Beckman Coulter), anti-DNAM-1-FITC (DX 11; BD Biosciences Pharmingen, Breda, The Netherlands), anti-CD16-FITC (3G8), anti-CD3-FITC (UCHT1), anti-NKG2D-PE (1D11), anti-NKp30-PE (P30-15), anti-NKp44-PE (P44-8), anti-NKp46-PD (9E5), anti-CD158b-PE (Dx27), anti-CD158e-PE (Dx9), anti-CD158a/h-PE (HP-MA4), anti-CD62L-PE (DREG56), anti-CD253-PE (RIK-2), anti-CXCR3-PE (G025H7), anti-CXCR4-PE (12G5), anti-IgG1-PE (MOPC-21), anti-IgG2a-PE (MOPC-173), anti-IgG2b-PE (MCP-11), anti-IgG1-FITC (MOPC-21; all from Biolegend).

BM-derived CD34+HSPCs = assay: Ex vivo cytokine-based expansion and NK cell differentiation of bone marrow-derived CD34+HSPCs with or without 2 μM SR1; design: species or system human
Procedure: (§2) Bone marrow samples were collected from healthy donors after written informed consent. Bone marrow-derived mononuclear cells (BM-MNCs) were isolated by Ficoll-hypaque (1.077 g/mL; GE Healthcare, Uppsala, Sweden) density gradient centrifugation. Peripheral blood-derived mononuclear cells (PB-MNCs) were obtained from aphaeresis material from stem cell donors who were treated with G-CSF (Neupogen®) 10 μg/kg/day subcutaneously for 5 to 6 days, after written informed consent. CD34+HSPCs were isolated using anti-CD34 immunomagnetic beads (Miltenyi Biotech, Bergisch Gladbach, Germany) according to manufacturer's instructions. CD34+HSPCs were directly used for NK cell generation.
CD34+HSPCs were plated into 24-well or 6-well tissue culture plates (Corning Incorporated, Corning, N.Y., USA). Cells were expanded during 9 or 10 days with a high-dose cytokine cocktail (Expansion cocktail I) consisting of 25 ng/mL IL-7 (Immunotools), 25 ng/mL SCF (Immunotools), 25 ng/mL TPO (Cellgenix) and 25 ng/mL Flt3L (Immunotools). […]
as §1, with “Anti-human CD45-ECD (J.33, Beckman Coulter, Woerden, The Netherlands) and anti-CD56-PC7 (HCD56, Biolegend, San Diego, Calif., USA) antibodies were used to follow cell number and NK cell differentiation during culture using the Coulter FC500 flow cytometer (Beckman Coulter).” left out

AhR = assay: qRT-PCR of AhRR and NK cell transcription factors in HSPC-NK cultures with or without SR1; assay type: cell-based, human
Procedure: Total RNA from 0.5-2E+5 cells, collected weekly from HSPC-NK cell cultures, was isolated using the Quick-RNA™ MicroPrep Kit (Zymo Research, CA, USA). Next, cDNA was synthesized using M-MLV-reverse transcriptase (Invitrogen) in a standard reaction as described before, after which real-time PCR was performed using the following Taqman Gene expression assays (Applied Biosystems, Forster City, Calif., USA): AhRR (Hs01005075_m1); TOX (Hs01055573_m1); ID2 (Hs04187239_m1); EOMES (Hs00172872_m1); GATA3 (Hs00231122_m1); SH2D1B (Hs01592483_m1); IFNG (Hs00989291_m1); GZMB (Hs01554355_m1); PRF1 (Hs99999108_m1). For all genes, Ct values were normalized to GAPDH (Hs02758991_g1) by calculating ΔCt=Cttarget gene−CtGAPDH per sample. Finally, gene expression levels were quantified relative to GAPDH as follows: 2^(−[ΔCt]).
After 5 weeks of culture, CD56+ cells were isolated from the total cultured cells. For this purpose cells were stained for 15 minutes at 4° C. using the appropriate concentration of anti-CD56-PEcy7 (CD56-PC7 (HCD56, Biolegend). Cells were washed and resuspended in FACS buffer at a concentration of 1.5E+6/mL, and subsequently sorted at the FACSAria Cell Sorter (BD Biosciences).

[1] = tested on: CD34+ cells enriched from UCB, BM and mobilized blood; assay: SR1-based culture without heparin and low dose cytokines (UCB, BM and mobilized blood CD34+ cells); assay type: cell-based, human
Excerpt: Representation of the new ex vivo SR1-based culture protocol used for the generation of NK cells. In the expansion step, CD34+ cells are expanded and differentiated into NK progenitors using SCF, Flt3L, IL-7, TPO and an aryl hydrocarbon antagonist, preferably SR1. Thereafter, NK progenitors are further differentiated using IL-15, IL-12 and/or IL-2.
In earlier studies, we exploited a phased based addition of cytokines in heparin-based basal media (5-7). Heparin is able to bind certain cytokines, reducing their degradation and perhaps presenting them in a more physiological manner. Furthermore, low dose cytokine cocktail containing G-CSF, GM-CSF and IL-6 was being used, which was based on studies using the fetal liver-derived stromal cell line AFT024 [59]. Since we observed that the AhR antagonist is a crucial component for the ex vivo expansion of NK cells from BM and mobilized blood CD34+HSPCs, we investigated whether we could simplify the culture method by leaving out heparine and low dose cytokines G-CSF, GM-SCF and IL-6 that have mainly an effect on myeloid progenitor cells (see FIG. 7).

[2] = tested on: G-CSF mobilized CD34+HSPCs; assay: Ex vivo cytokine-based expansion and NK cell differentiation of G-CSF mobilized peripheral blood CD34+HSPCs with or without 2 μM SR1; design: species or system human
Procedure: as §2
CD34+HSPCs were plated into 24-well or 6-well tissue culture plates (Corning Incorporated, Corning, N.Y., USA). Cells were expanded during 9 or 10 days with a high-dose cytokine cocktail (Expansion cocktail I) consisting of 25 ng/mL IL-7 (Immunotools), 25 ng/mL SCF (Immunotools), 25 ng/mL TPO (Cellgenix) and 25 ng/mL Flt3L (Immunotools). From day 9 or 10 until day 14 or 15, TPO was replaced by 20 ng/mL IL-15 (Miltenyi). After day 14 or 15, cell differentiation was initiated by replacing Expansion cocktail I by a new high-dose cytokine cocktail (Differentiation cocktail) consisting of 20 ng/mL IL-7, 20 ng/mL SCF, 20 ng/mL IL-15 and 1000 U/mL IL-2 (Proleukin®; Chiron, München, Germany). Where mentioned, 2 μM StemRegenin1 (SR1; Cellagen Technology, San Diego, Calif., USA) was added to the culture medium (see FIG. 1A). Cells were cultured in Cellgro GMP DC medium (Cellgenix, Freiburg, Germany) supplemented with 10% human serum (HS; Sanquin Bloodbank, Nijmegen, The Netherlands) and a low dose cytokine cocktail consisting of […] G-CSF (Filgrastim, “Neupogen”—Amgen Corp. USA), 10 μg/mL GM-CSF and 50 μg/mL IL-6 (both Immunotools, Friesoythe, Germany). During the first 14 or 15 days of culture, low molecular weight heparin (Clivarin®; Abbott, Wiesbaden, Germany) was added to the medium in a final concentration of 20 μg/mL. Freshly isolated CD34+ cells were plated at a concentration of 1-4E+5/mL. After 3 days of culture, cells were transferred to a new plate in order to deplete for stromal cells. From day 14 or 15 onward, cell counts were kept above 2E+6 cells/mL. Cell cultures were refreshed with at least 30% new medium every 2 to 3 days. Cultures were maintained at 37° C., in 95% humidity, and 5% CO2. NK cells were used in experiments after 5 weeks of culture.
as §1

CD34+UCB cells = conditions: after 25 days of culture with IL-1β; cited from earlier work
HSPC-NK cells = assay: Proliferation (CFSE dilution) and viability of HSPC-NK cells cultured 7 days with MPA or CsA; assay type: cell-based, human
Procedure: HSPC-NK cells were cultured according to our culture protocol for 35 days. After 35 days, NK cells were labeled with 1 μM CFSE as described previously. After staining, cells were resuspended in differentiation medium at a concentration of 2E+6/mL and plated in duplicate in a 96-well plate. […] After 7 days, cells were harvested. The number of viable target cells was quantified by FCM by gating on forward scatter and side scatter and exclusion of 7-AAD positive cells. Proliferation was analyzed by determining the CFSE dilution within CD56+ cells.

K562 cells = assay: K562 killing and IFN-γ production by NK cells cultured in the presence of MPA or CsA; assay type: cell-based, human
Procedure: Cell lines were labeled with 1 μM carboxyfluorescein diacetate succinimidyl ester (CFSE; Molecular Probes Invitrogen, Eugene, Oreg., USA) and primary AML blasts were labeled with 1.5 μM CFSE, both in a concentration of 1E+7/mL for 10 minutes at 37° C. The reaction was terminated by adding an equal volume of FCS. After washing, cells were resuspended in IMDM/10% FCS to a final concentration of 3E+5/mL. Target cells (3E+4) were co-cultured in triplicate with effector cells at different effector:target (E:T) ratios in a total volume of 200 μL IMDM/10% FCS in 96-wells round-bottom plates (Corning Incorporated). Effector cells and target cells alone were plated out in triplicate as controls. […] Cells were harvested and the number of viable target cells was quantified by FCM by gating on forward scatter and side scatter and exclusion of 7-AAD positive cells. Target cell survival was calculated as follows: % survival=([absolute number of viable CFSE+ target cells co-cultured with NK cells]/[absolute number of viable CFSE+ target cells cultured in medium])×100%. The percentage specific lysis was calculated as follows: % lysis=(100−[% survival]), as described earlier by Jedema et al. Degranulation of NK cells during overnight co-culture was determined as the percentage of CD107a expressing cells measured by FCM. […]

[3] = FACS-sorted CD56+NK cells after 5 weeks, SR1 vs no SR1

CC(C)n1cnc2c(NCCc3ccc(O)cc3)nc(-c3csc4ccccc34)nc21 [SR1, StemRegenin 1]
presence of CD62L, CXCR3, DNAM-1 and TRAIL on CD56+ cells (CD56+NK cells): significantly higher
purity (NK cell differentiation, CD56+) (BM-derived CD34+HSPCs; BM-derived CD34+ cells, with SR1, 5 weeks): 84%±18%
Mean NK cell yield after 5 weeks of culture (BM-derived CD34+HSPCs; BM-derived CD34+HSPCs, 2 μM SR1, range 33-301, n=4): 129 fold
expansion of CD34+ cells (BM-derived CD34+HSPCs; BM-derived HSPCs, addition of 2 μM SR1 vs no SR1): strongly enhanced expansion of CD34+ cells
IFN-γ mRNA expression (AhR; FACS-sorted CD56+NK cells after 5 weeks, not exposed to target cells, SR1 vs no SR1): not increased
GATA-3 and EAT-2 expression (AhR; [3]): similar
GZMB and PERF expression (AhR; [3]): slightly higher, but not significantly increased
TOX, ID2 and EOMES expression (AhR; [3]): did not observe increased expression
AhRR expression relative to GAPDH (AhR; total cells, 2 μM SR1 vs no SR1): efficient down regulation
EOMES expression relative to GAPDH (AhR; total cells, SR1 vs no SR1): upregulated from week three onward
GATA-3 and EAT-2 (SH2D1B) expression relative to GAPDH (AhR; total cells, SR1 vs no SR1): increased in cells cultured in the presence of SR1
ID2 expression relative to GAPDH (AhR; total cells, SR1 vs no SR1): increased from day 14 onwards
TOX expression relative to GAPDH (AhR; total cells, from day 7 onward, SR1 vs no SR1): higher expression
expansion of CD56+NK cells from CD34+ cells ([1]; 2 μM SR1 for 21 days, no heparin, G-CSF, GM-CSF, IL-6): promotes the expansion of CD56+NK cells
remaining non-NK cells, mainly CD14+ monocytic cells ([1]; SR1-based cultures without heparin and low dose cytokines): < 20%
Mean NK cell yield after 5 weeks of culture ([2]; G-CSF mobilized CD34+ cells, 2 μM SR1, range 115-904 fold, n=10): 235 fold
purity (NK cell differentiation, CD56+) ([2]; G-CSF mobilized CD34+HSPCs, with SR1, 5 weeks): 83%±9%
expansion of CD34+ cells ([2]; PB-derived HSPCs, addition of 2 μM SR1 vs no SR1): strongly enhanced expansion of CD34+ cells
amount of CD3+ T cells ([2]; SR1-based NK cell cultures): 0.1%±0.1%
average expansion of G-CSF-mobilized CD34+ cells ([2]; SR1-based protocol): 268 fold
frequency of CD34+ cells at the end of the culture process ([2]; SR1 cultures): 0.7%±0.4%
remaining non-NK cells: CD14+ and/or CD15+ mature monocytic and myelocytic cells ([2]; SR1 cultures, end of culture): 11%±6%

IL-1β: cytokine added at the beginning of CD34+UCB culture in the protocol of Ambrosini et al.
overall percentage of CD56+NK cells expressing CD161, LFA1, NKG2A, NKp46, EOMES and perforin (CD34+UCB cells): < 20%

COc1c(C)c2c(c(O)c1C/C=C(\C)CCC(=O)O)C(=O)OC2 [MPA, mycophenolic acid]
proliferation of HSPC-NK cells (HSPC-NK cells; MPA 0.1 μg/ml): already inhibited
NK cell viability (HSPC-NK cells; MPA 0.1 to 10 μg/mL or CsA 0.01 to 1 μg/mL): induced dose-dependent cell death
NK cell-mediated killing of K562 cells (K562 cells; NK cells cultured with drug, overnight, E:T 1:1): impaired killing
IFN-γ production (K562 cells; NK cells incubated with drug, overnight co-culture with K562, E:T 1:1): impaired IFN-γ production
